Literature values in patent US7683052B2, “Crystalline polymorph of bazedoxifene acetate” (Wyeth, priority 2004, dated 2010).

Columns and labels:
[1] = system: MCF-7 cell line (human breast cancer cell line); conditions: MCF-7 human breast cancer cell line
uterine response = conditions: preclinical models of uterine stimulation
ovariectomized rat = ovariectomized rat model of osteopenia

Compound: Cc1c(-c2ccc(O)cc2)n(Cc2ccc(OCCN3CCCCCC3)cc2)c2ccc(O)cc12 [bazedoxifene acetate, 1-[4-(2-azepan-1-yl-ethoxy)-benzyl]-2-(4-hydroxy-phenyl)-3-methyl-1H-indol-5-ol acetic acid]
- Estrogen agonist/antagonist behaviour in MCF-7 cells [1]: behaves as an estrogen antagonist
- Stimulation of uterine response (uterine response): little or no stimulation of uterine response
- Effect on bone loss and cholesterol (ovariectomized rat): estrogen agonist-like effect in preventing bone loss and reducing cholesterol
